US20080213338A1, “IMPLANT STENT WITH A RETINOID FOR IMPROVED BIOCOMPATIBILITY” (priority 1997, published 2008)

System: pigmented rabbits
Test: Retinal plug implantation in vitrectomized rabbit eyes, histopathology (PAS stain) at 28 days
Type: in vivo
Details: polylactic acid plug containing 10% by weight retinoid, inserted into vitreous through sclera; intravitreal injection of 500,000 human RPE cells; 28 days after insertion
Method: Retinal plugs were manufactured from poly(D,L)lactic acid (PLA) with an intrinsic viscosity of 0.6 DL/G. The retinoid 6-[(4,4-dimethyl thiochroman-6-yl)ethynl]nicotinic acid (AGN190299) was mixed with polymer in a three-dimensional mixer. The mixture was then extruded at 85° C. into a homogeneous rod. The retinoid was incorporated into the polymeric plug at a concentration of 10%. […] A 0.5 mm hole was drilled into the distal end of the plug to allow for suture fixation to the sclera. Placebo plugs containing no retinoid were also manufactured to the same dimensions. The average weight of the plugs was 8 mg. All plugs were sterilized by gamma irradiation at l Mrad.
The rabbit eyes were vitrectomized and the retinal plugs with or without incorporated retinoid were inserted through a sclerotomy 3 mm posterior to the corneoscleral limbus. The plugs were then fixated with the suture used to close the sclerotomy. An intravitreal injection of 500,000 human RPE cells was given to simulate traction retinal detachment. The rabbits were sacrificed at 28 days and histopathology was done.
These observed results are shown in FIG. 7 for the placebo plug and in FIG. 8 for the plug 10 including the retinoid as hereinabove described.

CC1(C)CCSc2ccc(C#Cc3ccc(C(=O)O)cn3)cc21 [AGN190299, 6-[(4,4-dimethylthiochroman-6-yl)ethynyl]nicotinic acid]
fibrous inflammation of the capsule surrounding the plug (histopathology, PAS stain): very little fibrous inflammation
